Common to all, as to assay type: biochemical
The target of one assay is T1, FMS (Homo sapiens, UniProt P07333).
T1 construct: purchased Reaction Biology Corp. (Kinase HotSpot service)
As to the kind of experiment: Reaction Biology Kinase HotSpot radiometric kinase assay.

The target in another assay is T2, ROS/ROS1 (Homo sapiens, UniProt P08922).
T2 construct: purchased Reaction Biology Corp. (Kinase HotSpot service)
The assay is described as above.

For a further assay, the target named is P38a/MAPK14 (Homo sapiens, UniProt Q16539). The description is as above.
The target of the next assay is T3, FLT1/VEGFR1 (Homo sapiens, UniProt P17948).
T3 construct: purchased Reaction Biology Corp. (Kinase HotSpot service)
The description is as above.

Another assay has as its target T4, c-Src (Homo sapiens, UniProt P12931).
T4 construct: purchased Reaction Biology Corp. (Kinase HotSpot service)
Described as above.

For a further assay, the target named is T5, JAK3 (Homo sapiens, UniProt P52333).
T5 construct: purchased Reaction Biology Corp. (Kinase HotSpot service)
T5 sequence (P52333 whole entry): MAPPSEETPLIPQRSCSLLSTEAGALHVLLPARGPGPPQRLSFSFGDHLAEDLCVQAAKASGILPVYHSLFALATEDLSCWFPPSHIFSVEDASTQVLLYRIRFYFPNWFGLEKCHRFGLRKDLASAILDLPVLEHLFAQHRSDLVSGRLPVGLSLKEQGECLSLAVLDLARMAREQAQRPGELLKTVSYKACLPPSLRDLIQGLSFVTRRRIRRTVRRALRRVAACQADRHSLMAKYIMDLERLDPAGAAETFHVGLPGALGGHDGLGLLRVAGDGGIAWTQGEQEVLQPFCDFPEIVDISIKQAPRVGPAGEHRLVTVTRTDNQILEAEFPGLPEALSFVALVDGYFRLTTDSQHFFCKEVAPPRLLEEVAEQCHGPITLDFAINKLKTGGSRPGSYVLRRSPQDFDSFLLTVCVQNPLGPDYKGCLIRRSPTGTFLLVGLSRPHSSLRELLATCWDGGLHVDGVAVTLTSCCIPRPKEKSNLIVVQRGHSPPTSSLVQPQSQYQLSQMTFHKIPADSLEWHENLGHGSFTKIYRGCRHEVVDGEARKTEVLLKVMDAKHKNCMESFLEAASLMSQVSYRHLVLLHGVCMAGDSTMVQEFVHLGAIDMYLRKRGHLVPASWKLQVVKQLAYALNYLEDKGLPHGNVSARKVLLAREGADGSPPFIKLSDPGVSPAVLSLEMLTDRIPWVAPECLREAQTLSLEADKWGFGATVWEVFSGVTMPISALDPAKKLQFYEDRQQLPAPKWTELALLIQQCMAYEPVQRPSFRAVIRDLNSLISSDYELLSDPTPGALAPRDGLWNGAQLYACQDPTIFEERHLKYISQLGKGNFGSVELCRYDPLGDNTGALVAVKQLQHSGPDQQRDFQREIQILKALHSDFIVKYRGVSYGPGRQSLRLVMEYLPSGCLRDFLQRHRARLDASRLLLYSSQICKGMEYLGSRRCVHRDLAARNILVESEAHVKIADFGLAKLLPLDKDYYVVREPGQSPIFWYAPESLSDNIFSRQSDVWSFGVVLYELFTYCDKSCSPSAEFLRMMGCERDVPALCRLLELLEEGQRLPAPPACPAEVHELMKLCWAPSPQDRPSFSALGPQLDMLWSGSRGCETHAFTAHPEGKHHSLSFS
The assay is described as above.

The target in another assay is T6, ALK (Homo sapiens, UniProt Q9UM73).
T6 construct: purchased Reaction Biology Corp. (Kinase HotSpot service)
T6 sequence (Q9UM73 19-1620): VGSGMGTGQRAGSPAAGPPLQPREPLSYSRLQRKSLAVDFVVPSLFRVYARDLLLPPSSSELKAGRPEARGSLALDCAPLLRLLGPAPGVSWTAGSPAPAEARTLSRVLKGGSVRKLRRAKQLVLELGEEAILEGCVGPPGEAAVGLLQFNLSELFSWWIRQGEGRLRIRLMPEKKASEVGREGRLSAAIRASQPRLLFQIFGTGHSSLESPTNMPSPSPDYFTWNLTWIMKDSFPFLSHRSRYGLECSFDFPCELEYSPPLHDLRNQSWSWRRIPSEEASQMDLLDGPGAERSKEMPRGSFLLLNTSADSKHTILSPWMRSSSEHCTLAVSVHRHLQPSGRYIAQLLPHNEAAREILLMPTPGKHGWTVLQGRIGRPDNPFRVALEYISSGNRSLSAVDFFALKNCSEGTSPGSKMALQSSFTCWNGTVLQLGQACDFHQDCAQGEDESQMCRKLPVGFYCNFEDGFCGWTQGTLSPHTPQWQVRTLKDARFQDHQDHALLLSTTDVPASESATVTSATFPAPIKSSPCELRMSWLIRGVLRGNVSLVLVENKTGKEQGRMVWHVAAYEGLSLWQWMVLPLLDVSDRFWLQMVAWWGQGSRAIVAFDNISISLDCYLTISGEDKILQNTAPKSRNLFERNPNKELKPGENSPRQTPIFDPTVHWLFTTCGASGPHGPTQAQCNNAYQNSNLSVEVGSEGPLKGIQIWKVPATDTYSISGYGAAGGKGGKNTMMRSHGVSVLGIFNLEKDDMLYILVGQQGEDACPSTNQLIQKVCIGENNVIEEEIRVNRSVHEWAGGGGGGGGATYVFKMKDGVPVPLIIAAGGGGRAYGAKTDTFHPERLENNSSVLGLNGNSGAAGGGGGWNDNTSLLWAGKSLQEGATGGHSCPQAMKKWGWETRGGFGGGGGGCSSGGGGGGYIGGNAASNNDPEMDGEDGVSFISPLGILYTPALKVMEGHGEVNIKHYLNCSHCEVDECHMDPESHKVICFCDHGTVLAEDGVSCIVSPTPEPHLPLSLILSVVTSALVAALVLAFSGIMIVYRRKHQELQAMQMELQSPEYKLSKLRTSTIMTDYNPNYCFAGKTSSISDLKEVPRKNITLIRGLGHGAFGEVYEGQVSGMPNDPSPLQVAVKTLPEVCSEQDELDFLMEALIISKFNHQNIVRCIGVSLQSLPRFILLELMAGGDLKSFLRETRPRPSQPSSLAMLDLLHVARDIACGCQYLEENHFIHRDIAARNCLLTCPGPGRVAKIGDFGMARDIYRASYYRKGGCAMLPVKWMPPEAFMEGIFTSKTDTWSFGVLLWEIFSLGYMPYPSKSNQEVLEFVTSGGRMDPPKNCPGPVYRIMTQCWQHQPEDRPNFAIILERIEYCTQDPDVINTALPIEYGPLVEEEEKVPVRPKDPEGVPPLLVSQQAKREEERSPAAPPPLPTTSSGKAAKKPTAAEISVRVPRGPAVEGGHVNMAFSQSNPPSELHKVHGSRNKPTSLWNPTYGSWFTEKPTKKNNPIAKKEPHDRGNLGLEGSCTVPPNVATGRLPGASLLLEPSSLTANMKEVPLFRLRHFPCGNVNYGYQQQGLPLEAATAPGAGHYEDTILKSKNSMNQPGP
The description is as above.

The target in another assay is T7, PLK1 (Homo sapiens, UniProt P53350).
T7 construct: purchased Reaction Biology Corp. (Kinase HotSpot service)
The assay is described as above.

Assay [1] concerns other kinases including FMS and cKit. The assay can be described thus: Kinase panel screening, overall selectivity. The following applies: 36 different kinases, single dose of 10 µM. The method, then: Next, we investigated kinase panel screening of 7d and 7b over 36 different kinases at a single dose of 10 µM (Figure 5). […] High selectivity over cKit might be an opportunity to avoid myelosuppression toxicity, which was reported from a dual FLT3/cKit inhibitor[19–22]. It is a valuable result to secure such a kinase selectivity profile considering the similarities of the same type III receptor tyrosine kinase (FMS, cKit and FLT3).
3. Evaluation of IC50 and Selected Kinase Profiling
We used Reaction Biology Corp. Kinase HotSpotSM service (www.reactionbiology.com) for IC50 determination of all compounds and kinase profile. Assay protocol: In a final reaction volume of 25 μL, Peptide substrate, [[…]], 5 µM, ATP 10 µM, FLT3(h) (5-10 […]
mU) is incubated with 25 mM Tris pH 7.5, 0.02 mM EGTA, 0.66 mg/mL myelin basic protein, 10 mM Mg Acetate and [γ-33P-ATP] (specific activity approx. 500 cpm/pmol, concentration as required). The reaction is initiated by the addition of the Mg-ATP mix. After incubation for 40 minutes at room temperature, the reaction is stopped by the addition of 5 μL of a 3% phosphoric acid solution. 10 μL of the reaction is then spotted onto a P30 filtermat and washed three times for 5 minutes in 75 mM phosphoric acid and once in methanol prior to drying and […]

In the next assay the target is FLT3-ITD (Homo sapiens, UniProt P36888, ITD). As to the kind of experiment: Reaction Biology Kinase HotSpot radiometric kinase assay.
The target of another assay is T8, GSK3b (Homo sapiens, UniProt P49841).
T8 construct: purchased Reaction Biology Corp. (Kinase HotSpot service)
T8 sequence (P49841 whole entry): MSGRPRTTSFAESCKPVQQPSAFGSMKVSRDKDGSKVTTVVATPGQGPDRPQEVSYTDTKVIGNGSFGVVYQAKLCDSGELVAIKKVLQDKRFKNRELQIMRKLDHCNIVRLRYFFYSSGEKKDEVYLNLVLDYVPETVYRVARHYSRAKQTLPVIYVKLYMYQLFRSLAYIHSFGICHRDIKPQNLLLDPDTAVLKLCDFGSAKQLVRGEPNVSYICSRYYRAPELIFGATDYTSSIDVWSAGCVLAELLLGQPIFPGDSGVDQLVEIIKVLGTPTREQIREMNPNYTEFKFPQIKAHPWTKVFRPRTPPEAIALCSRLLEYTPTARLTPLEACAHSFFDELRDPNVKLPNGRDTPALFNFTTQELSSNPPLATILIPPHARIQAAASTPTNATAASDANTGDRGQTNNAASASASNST
The description is as above.

A further assay concerns the target T9, FLT3 (D835Y) (Homo sapiens, UniProt P36888, D835Y).
T9 construct: purchased Reaction Biology Corp. (Kinase HotSpot service)
T9 sequence (P36888 27-993 D835Y): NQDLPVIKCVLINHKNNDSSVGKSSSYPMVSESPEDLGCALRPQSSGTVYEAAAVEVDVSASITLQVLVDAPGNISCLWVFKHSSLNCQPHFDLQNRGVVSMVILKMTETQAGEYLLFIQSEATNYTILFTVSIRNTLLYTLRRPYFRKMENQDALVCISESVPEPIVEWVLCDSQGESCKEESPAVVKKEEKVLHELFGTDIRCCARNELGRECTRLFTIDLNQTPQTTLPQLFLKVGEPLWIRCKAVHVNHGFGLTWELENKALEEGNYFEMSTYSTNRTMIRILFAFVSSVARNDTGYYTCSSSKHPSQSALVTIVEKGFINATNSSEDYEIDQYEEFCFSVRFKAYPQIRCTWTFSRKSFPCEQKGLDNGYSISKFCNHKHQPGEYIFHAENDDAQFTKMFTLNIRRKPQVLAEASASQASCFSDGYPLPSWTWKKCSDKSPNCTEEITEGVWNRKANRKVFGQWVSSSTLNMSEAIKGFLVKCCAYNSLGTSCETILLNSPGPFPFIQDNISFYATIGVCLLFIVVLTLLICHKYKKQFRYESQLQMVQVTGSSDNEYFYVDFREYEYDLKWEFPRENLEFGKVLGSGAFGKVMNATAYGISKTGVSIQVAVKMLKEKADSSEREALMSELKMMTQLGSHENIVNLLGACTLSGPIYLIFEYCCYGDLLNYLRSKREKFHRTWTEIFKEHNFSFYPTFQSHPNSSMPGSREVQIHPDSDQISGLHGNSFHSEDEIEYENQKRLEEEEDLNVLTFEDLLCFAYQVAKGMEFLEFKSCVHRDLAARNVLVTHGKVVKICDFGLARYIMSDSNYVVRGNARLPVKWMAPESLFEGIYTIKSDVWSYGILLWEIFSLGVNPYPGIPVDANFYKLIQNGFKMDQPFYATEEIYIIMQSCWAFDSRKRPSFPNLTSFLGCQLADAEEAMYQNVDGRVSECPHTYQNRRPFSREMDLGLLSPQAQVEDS
As to the kind of experiment: Enzymatic activity against FLT3 mutants.

For a further assay, the target named is T10, SYK (Homo sapiens, UniProt P43405).
T10 construct: purchased Reaction Biology Corp. (Kinase HotSpot service)
The assay can be described thus: Reaction Biology Kinase HotSpot radiometric kinase assay.

The next assay has as its target T11, JNK3 (Homo sapiens, UniProt P53779).
T11 construct: purchased Reaction Biology Corp. (Kinase HotSpot service)
Described as above.

The target of a further assay is T12, ERK1 (Homo sapiens, UniProt P27361).
T12 construct: purchased Reaction Biology Corp. (Kinase HotSpot service)
T12 sequence (P27361 whole entry): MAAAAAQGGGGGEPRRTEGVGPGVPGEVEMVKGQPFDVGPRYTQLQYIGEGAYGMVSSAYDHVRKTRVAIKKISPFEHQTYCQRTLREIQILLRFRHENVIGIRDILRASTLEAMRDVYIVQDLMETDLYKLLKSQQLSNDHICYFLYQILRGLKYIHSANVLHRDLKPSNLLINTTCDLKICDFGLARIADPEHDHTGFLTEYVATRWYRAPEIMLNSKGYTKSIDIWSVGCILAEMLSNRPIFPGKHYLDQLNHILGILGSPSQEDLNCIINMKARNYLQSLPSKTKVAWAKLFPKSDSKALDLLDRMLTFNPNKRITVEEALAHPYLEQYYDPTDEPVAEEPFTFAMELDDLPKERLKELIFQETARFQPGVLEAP
The description is as above. The following applies: 10 µM.

A further assay addresses T13, c-Kit (Homo sapiens, UniProt P10721).
T13 construct: purchased Reaction Biology Corp. (Kinase HotSpot service)
The description is as above.

The target of the next assay is T14, FYN (Homo sapiens, UniProt P06241).
T14 construct: purchased Reaction Biology Corp. (Kinase HotSpot service)
T14 sequence (P06241 whole entry): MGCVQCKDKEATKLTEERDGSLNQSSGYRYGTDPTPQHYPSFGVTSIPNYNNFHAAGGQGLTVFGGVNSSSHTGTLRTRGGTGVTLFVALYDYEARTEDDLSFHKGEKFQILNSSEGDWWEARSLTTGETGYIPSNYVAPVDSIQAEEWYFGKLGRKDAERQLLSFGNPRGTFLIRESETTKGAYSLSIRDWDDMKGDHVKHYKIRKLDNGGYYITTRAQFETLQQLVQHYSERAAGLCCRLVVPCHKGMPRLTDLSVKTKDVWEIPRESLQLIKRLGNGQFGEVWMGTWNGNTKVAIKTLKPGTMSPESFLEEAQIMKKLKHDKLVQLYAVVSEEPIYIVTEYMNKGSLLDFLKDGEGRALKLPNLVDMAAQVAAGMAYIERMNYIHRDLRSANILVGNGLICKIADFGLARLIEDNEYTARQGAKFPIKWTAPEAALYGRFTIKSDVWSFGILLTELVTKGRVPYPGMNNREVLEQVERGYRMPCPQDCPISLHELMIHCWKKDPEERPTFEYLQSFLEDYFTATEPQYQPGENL
The description is as above.

The target of another assay is T15, MEK1 (Homo sapiens, UniProt Q02750).
T15 construct: purchased Reaction Biology Corp. (Kinase HotSpot service)
T15 sequence (Q02750 whole entry): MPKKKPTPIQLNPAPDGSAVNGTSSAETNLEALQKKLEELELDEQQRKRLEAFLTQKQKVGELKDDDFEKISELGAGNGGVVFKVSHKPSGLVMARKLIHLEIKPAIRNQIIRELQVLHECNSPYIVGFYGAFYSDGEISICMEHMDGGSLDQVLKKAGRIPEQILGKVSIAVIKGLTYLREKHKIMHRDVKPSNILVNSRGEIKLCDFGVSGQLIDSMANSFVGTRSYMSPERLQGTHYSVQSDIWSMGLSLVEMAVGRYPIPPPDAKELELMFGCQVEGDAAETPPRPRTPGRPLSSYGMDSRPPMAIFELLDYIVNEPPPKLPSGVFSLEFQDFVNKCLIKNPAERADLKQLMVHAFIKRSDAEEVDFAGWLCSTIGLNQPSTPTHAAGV
The assay is described as above.

Molecules are shown by their SMILES. pIC50: −log10 of the molar value.

The text below walks through data of paper PMC7241567 (Journal of Enzyme Inhibition and Medicinal Chemistry, 2020).

One may read the inhibition as the percentage by which the read-out fell short of the control. High values mean a strong effect, low ones a weak effect. One may read the pIC50 as the IC50 on a negative log10 scale, so that one unit is a factor of ten.

T4 sequence (P12931 whole entry): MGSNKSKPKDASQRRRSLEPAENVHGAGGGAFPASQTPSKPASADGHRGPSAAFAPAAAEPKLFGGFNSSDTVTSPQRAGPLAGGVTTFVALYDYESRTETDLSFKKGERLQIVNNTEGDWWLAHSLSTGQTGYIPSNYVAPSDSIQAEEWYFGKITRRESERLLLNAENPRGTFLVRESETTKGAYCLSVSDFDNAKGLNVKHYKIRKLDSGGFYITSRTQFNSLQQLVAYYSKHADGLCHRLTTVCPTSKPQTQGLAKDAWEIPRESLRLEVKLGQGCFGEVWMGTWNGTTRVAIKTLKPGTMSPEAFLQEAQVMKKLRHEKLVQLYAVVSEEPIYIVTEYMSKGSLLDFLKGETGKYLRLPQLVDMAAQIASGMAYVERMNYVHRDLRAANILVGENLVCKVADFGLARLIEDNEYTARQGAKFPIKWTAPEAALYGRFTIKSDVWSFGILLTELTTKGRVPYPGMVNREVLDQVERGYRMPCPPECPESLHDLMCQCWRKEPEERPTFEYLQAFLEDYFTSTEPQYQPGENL

Consider `Cc1oncc1C(=O)Nc1ccc2cnc(-c3cc(N4CCN(C)CC4)cc(C(F)(F)F)c3)nc2c1` [Compound 7d, 5-methyl-N-(2-(3-(4-methylpiperazin-1-yl)-5-(trifluoromethyl)phenyl)quinazolin-7-yl)isoxazole-4-carboxamide], for which the inhibition at 10 µM against FMS was 5.49%; against ROS/ROS1, 14.4%; at P38a/MAPK14, 0%; on FLT1/VEGFR1, 5.23%; on c-Src, 14.6%; against JAK3, 0.8%. The inhibition at 10 µM against ALK is 17%; against PLK1, 0%; against FLT3-ITD (FLT3-ITD, 10 µM) it was 95.2%; on GSK3b, 8.06%; against SYK, 22.4%; against JNK3, 19.5%. Besides, the inhibition at 10 µM is 15% at ERK1, 0% at c-Kit, 19% against FYN and 0% against MEK1. Besides, the “activity on other kinases in panel (in words)” value in assay [1] is “almost no activity”. For the same compound, the negative-log IC50 (pIC50) on FLT3-ITD (read-out: IC50 against FLT3-ITD) was 6.52; at FLT3 (D835Y) (FLT3 (D835Y)), 6.64; on FLT3 (D835Y) (FLT3-TKD (D835Y)), 6.64. In addition, the “decrease of activity against FLT3-TKD (D835Y) compared to FLT3 wild type” value on FLT3 (D835Y) was “about 2 fold”.
